Results published in US20250114374A1, “BCL-2 INHIBITORS” (Newave Pharmaceutical Inc., priority 2021, published 2025).

system: RS4; 11 with G101V mutation; assay: In vitro anti-proliferation assay (ATPlite luminescence) in BCL-2-dependent ALL cell line RS4;11 with G101V mutation; assay type: cell-based; settings: Homo sapiens, RS4-11, 72 h; read-out: RS411-G101V IC50
Summary of the method: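 RS4;11 G101V cells at about 1×10^4 per well were exposed to a range of compound concentrations for about 72 h in medium with 10% FBS. Cellular ATP was measured by ATPlite luminescence after lysis, and IC50 was derived from the dose-response.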

| IC50 [nM] | SMILES |
| --- | --- |
| 8 | COc1cc(CN2CCN(C3CC4(CCN(c5ccc(C(=O)NS(=O)(=O)c6cc7c(c([N+](=O)[O-])c6)N[C@@H](C6CCOCC6)CO7)c(N6c7cc8cc[nH]c8nc7O[C@H]7COCC[C@@H]76)c5)CC4)C3)[C@H](c3ccccc3C)C2)cnc1N1CCOCC1 [Example 142, 4-(2-((R)-4-((5-methoxy-6-morpholinopyridin-3-yl)methyl)-2-(o-tolyl)piperazin-1-yl)-7-azaspiro[3.5]nonan-7-yl)-N—(((S)-5-nitro-3-(tetrahydro-2H-pyran-4-yl)-3,4-dihydro-2H-benzo[b][1,4]oxazin-7-yl)sulfonyl)-2-((5aS,9aR)-6,7,9,9a-tetrahydro-1H-pyrano[3,4-b]pyrrolo[3′,2′:5,6]pyrido[3,2-e][1,4]oxazin-5(5aH)-yl)benzamide] |
| 7 | COc1cc(CN2CCN(C3CC4(CCN(c5ccc(C(=O)NS(=O)(=O)c6cc7c(c([N+](=O)[O-])c6)N[C@H](C6CCOCC6)CO7)c(N6c7cc8cc[nH]c8nc7O[C@H]7COCC[C@@H]76)c5)CC4)C3)[C@H](c3ccccc3C)C2)cnc1N1CCOCC1 [Example 143, 4-(2-((R)-4-((5-methoxy-6-morpholinopyridin-3-yl)methyl)-2-(o-tolyl)piperazin-1-yl)-7-azaspiro[3.5]nonan-7-yl)-N-(((R)-5-nitro-3-(tetrahydro-2H-pyran-4-yl)-3,4-dihydro-2H-benzo[b][1,4]oxazin-7-yl)sulfonyl)-2-((5aS,9aR)-6,7,9,9a-tetrahydro-1H-pyrano[3,4-b]pyrrolo[3′,2′:5,6]pyrido[3,2-e][1,4]oxazin-5(5aH)-yl)benzamide] |

| SMILES | IC50 [nM] |
| --- | --- |
| COc1cc(CN2CCN(C3CC4(CCN(c5ccc(C(=O)NS(=O)(=O)c6ccc(NCC7CCOCC7)c([N+](=O)[O-])c6)c(N6c7cc8cc[nH]c8nc7O[C@H]7COCC[C@@H]76)c5)CC4)C3)[C@@H](c3ccccc3OC(C)C)C2)cnc1N1CCOCC1 [Example 144, 4-(2-((S)-2-(2-isopropoxyphenyl)-4-((5-methoxy-6-morpholinopyridin-3-yl)methyl)piperazin-1-yl)-7-azaspiro[3.5]nonan-7-yl)-N-((3-nitro-4-(((tetrahydro-2H-pyran-4-yl)methyl)amino)phenyl)sulfonyl)-2-((5aS,9aR)-6,7,9,9a-tetrahydro-1H-pyrano[3,4-b]pyrrolo[3′,2′:5,6]pyrido[3,2-e][1,4]oxazin-5(5aH)-yl)benzamide] | 7.3 |

same assay, conditions: cellular anti-proliferative IC50, about 72 hours, medium with 10% FBS, ATPlite; read-out: RS411-G101V IC50

| SMILES | IC50 [nM] |
| --- | --- |
| CC(C)Oc1ccccc1[C@H]1CN(Cc2cnc(N3CCOCC3)c(OC(C)C)c2)CCN1C1CC2(CCN(c3ccc(C(=O)NS(=O)(=O)c4ccc(NCC5CCC(C)(O)CC5)c([N+](=O)[O-])c4)c(N4c5cc6cc[nH]c6nc5O[C@H]5COCC[C@@H]54)c3)CC2)C1 (stereo partly drawn) [Example 137, 2-[(3R,8S)-2,5-dioxa-9,15,17-triazatetracyclo[8.7.0.0^{3,8}.0^{12,16}]heptadeca-1(10),11,13,16-tetraen-9-yl]-4-{2-[(2S)-4-{[5-isopropoxy-6-(morpholin-4-yl)pyridin-3-yl]methyl}-2-(2-isopropoxyphenyl)piperazin-1-yl]-7-azaspiro[3.5]nonan-7-yl}-N-[3-nitro-4-({[(1r,4r)-4-hydroxy-4-methylcyclohexyl]methyl}amino)benzenesulfonyl]benzamide] | 41.5 |
| COc1cc(CN2CCN(C3CC4(CCN(c5ccc(C(=O)NS(=O)(=O)c6ccc(NC[C@H]7CC[C@](C)(O)CC7)c([N+](=O)[O-])c6)c(N6c7cc8cc[nH]c8nc7O[C@H]7COCC[C@@H]76)c5)CC4)C3)[C@H](c3ccccc3C)C2)cnc1N1CCOC[C@@H]1C [Example 138, N-((4-((((1r,4r)-4-hydroxy-4-methylcyclohexyl)methyl)amino)-3-nitrophenyl)sulfonyl)-4-(2-((R)-4-((5-methoxy-6-((S)-3-methylmorpholino)pyridin-3-yl)methyl)-2-(o-tolyl)piperazin-1-yl)-7-azaspiro[3.5]nonan-7-yl)-2-((5aS,9aR)-6,7,9,9a-tetrahydro-1H-pyrano[3,4-b]pyrrolo[3′,2′:5,6]pyrido[3,2-e][1,4]oxazin-5(5aH)-yl)benzamide] | 1.7 |
| COc1cc(CN2CCN(C3CC4(CCN(c5ccc(C(=O)NS(=O)(=O)c6ccc(NCC7CCC(C)(O)CC7)c([N+](=O)[O-])c6)c(N6c7cc8cc[nH]c8nc7O[C@H]7COCC[C@@H]76)c5)CC4)C3)[C@H](c3ccccc3C)C2)cnc1N1CCOC[C@H]1C (stereo partly drawn) [Example 139, 2-[(3R,8S)-2,5-dioxa-9,15,17-triazatetracyclo[8.7.0.0^{3,8}.0^{12,16}]heptadeca-1(10),11,13,16-tetraen-9-yl]-4-{2-[(2R)-4-({5-methoxy-6-[(3R)-3-methylmorpholin-4-yl]pyridin-3-yl}methyl)-2-(2-methylphenyl)piperazin-1-yl]-7-azaspiro[3.5]nonan-7-yl}-N-[3-nitro-4-({[(1r,4r)-4-hydroxy-4-methylcyclohexyl]methyl}amino)benzenesulfonyl]benzamide] | 3.5 |
| COc1cc(CN2CCN([C@@H]3CC4(CCN(c5ccc(C(=O)NS(=O)(=O)c6ccc(NCC7CCC(C)(O)CC7)c([N+](=O)[O-])c6)c(N6c7cc8cc[nH]c8nc7O[C@H]7COCC[C@@H]76)c5)CC4)[C@@H]3C)[C@H](c3ccccc3C)C2)cnc1N1CCOCC1 (stereo partly drawn) [Example 140, 2-[(3R,8S)-2,5-dioxa-9,15,17-triazatetracyclo[8.7.0.0^{3,8}.0^{12,16}]heptadeca-1(10),11,13,16-tetraen-9-yl]-4-[(1S,2R)-2-[(2R)-4-{[5-methoxy-6-(morpholin-4-yl)pyridin-3-yl]methyl}-2-(2-methylphenyl)piperazin-1-yl]-1-methyl-7-azaspiro[3.5]nonan-7-yl]-N-[3-nitro-4-({[(1r,4r)-4-hydroxy-4-methylcyclohexyl]methyl}amino)benzenesulfonyl]benzamide] | 6.4 |
| COc1cc(CN2CCN([C@H]3CC4(CCN(c5ccc(C(=O)NS(=O)(=O)c6ccc(NCC7CCC(C)(O)CC7)c([N+](=O)[O-])c6)c(N6c7cc8cc[nH]c8nc7O[C@H]7COCC[C@@H]76)c5)CC4)[C@@H]3C)[C@H](c3ccccc3C)C2)cnc1N1CCOCC1 (stereo partly drawn) [Example 141, 2-[(3R,8S)-2,5-dioxa-9,15,17-triazatetracyclo[8.7.0.0^{3,8}.0^{12,16}]heptadeca-1(10),11,13,16-tetraen-9-yl]-4-[(1S,2S)-2-[(2R)-4-{[5-methoxy-6-(morpholin-4-yl)pyridin-3-yl]methyl}-2-(2-methylphenyl)piperazin-1-yl]-1-methyl-7-azaspiro[3.5]nonan-7-yl]-N-[3-nitro-4-({[(1r,4r)-4-hydroxy-4-methylcyclohexyl]methyl}amino)benzenesulfonyl]benzamide] | 35.9 |
| Cc1ccccc1[C@@H]1CN(Cc2cnc(N3CCOCC3)c(OC(C)C)c2)CCN1C1CC2(CCN(c3ccc(C(=O)NS(=O)(=O)c4ccc(NCC5CCC(C)(O)CC5)c([N+](=O)[O-])c4)c(N4c5cc6cc[nH]c6nc5O[C@H]5COCC[C@@H]54)c3)CC2)C1 (stereo partly drawn) [Example 145, 2-[(3R,8S)-2,5-dioxa-9,15,17-triazatetracyclo[8.7.0.0^{3,8}.0^{12,16}]heptadeca-1(10),11,13,16-tetraen-9-yl]-4-{2-[(2R)-4-{[5-isopropoxy-6-(morpholin-4-yl)pyridin-3-yl]methyl}-2-(2-methylphenyl)piperazin-1-yl]-7-azaspiro[3.5]nonan-7-yl}-N-[3-nitro-4-({[(1r,4r)-4-hydroxy-4-methylcyclohexyl]methyl}amino)benzenesulfonyl]benzamide] | 6.1 |
| Cc1cc2c(CN3CCN(C4CC5(CCN(c6ccc(C(=O)NS(=O)(=O)c7ccc(NCC8CCC(C)(O)CC8)c([N+](=O)[O-])c7)c(N7c8cc9cc[nH]c9nc8O[C@H]8COCC[C@@H]87)c6)CC5)C4)[C@H](c4ccccc4C)C3)cnc(N3CCOCC3)c2o1 (stereo partly drawn) [Example 146, 2-[(3R,8S)-2,5-dioxa-9,15,17-triazatetracyclo[8.7.0.0^{3,8}.0^{12,16}]heptadeca-1(10),11,13,16-tetraen-9-yl]-4-{2-[(2R)-4-{[2-methyl-7-(morpholin-4-yl)furo[2,3-c]pyridin-4-yl]methyl}-2-(2-methylphenyl)piperazin-1-yl]-7-azaspiro[3.5]nonan-7-yl}-N-[3-nitro-4-({[(1r,4r)-4-hydroxy-4-methylcyclohexyl]methyl}amino)benzenesulfonyl]benzamide] | 8.2 |
| Cc1cc2c(CN3CCN(C4CC5(CCN(c6ccc(C(=O)NS(=O)(=O)c7ccc(NCC8CCC(C)(O)CC8)c([N+](=O)[O-])c7)c(N7c8cc9cc[nH]c9nc8O[C@H]8COCC[C@@H]87)c6)CC5)C4)[C@@H](c4ccccc4OC(C)C)C3)cnc(N3CCOCC3)c2o1 (stereo partly drawn) [Example 147, 2-[(3R,8S)-2,5-dioxa-9,15,17-triazatetracyclo[8.7.0.0^{3,8}.0^{12,16}]heptadeca-1(10),11,13,16-tetraen-9-yl]-4-{2-[(2S)-2-(2-isopropoxyphenyl)-4-{[2-methyl-7-(morpholin-4-yl)furo[2,3-c]pyridin-4-yl]methyl}piperazin-1-yl]-7-azaspiro[3.5]nonan-7-yl}-N-[3-nitro-4-({[(1r,4r)-4-hydroxy-4-methylcyclohexyl]methyl}amino)benzenesulfonyl]benzamide] | 31.9 |
| Cc1ccccc1[C@@H]1CN(Cc2ccnc3c2OCC(C)(C)O3)CCN1C1CC2(CCN(c3ccc(C(=O)NS(=O)(=O)c4ccc(NCC5CCC(C)(O)CC5)c([N+](=O)[O-])c4)c(N4c5cc6cc[nH]c6nc5O[C@H]5COCC[C@@H]54)c3)CC2)C1 (stereo partly drawn) [Example 148, 4-(2-((R)-4-((3,3-dimethyl-2,3-dihydro-[1,4]dioxino[2,3-b]pyridin-8-yl)methyl)-2-(o-tolyl)piperazin-1-yl)-7-azaspiro[3.5]nonan-7-yl)-N-((4-((((1r,4r)-4-hydroxy-4-methylcyclohexyl)methyl)amino)-3-nitrophenyl)sulfonyl)-2-((5aS,9aR)-6,7,9,9a-tetrahydro-1H-pyrano[3,4-b]pyrrolo[3′,2′:5,6]pyrido[3,2-e][1,4]oxazin-5(5aH)-yl)benzamide] | 6.3 |
